Source: the supplement of paper PMC10307832

Legend:
Experiment in all cases: relative viability (nuclei count vs DMSO), 5 days (fraction); higher = more cells survive
CAP-232 + Pemetrexed = compound: C[C@H]([C@@H](C(=O)N)NC(=O)[C@@H]1CSSC[C@@H](C(=O)N[C@H](C(=O)N[C@@H](C(=O)N[C@H](C(=O)N1)CCCCN)CC2=CNC3=CC=CC=C32)CC4=CC=C(C=C4)O)NC(=O)[C@@H](CC5=CC=CC=C5)N)O [CAP-232] + Nc1nc2[nH]cc(CCc3ccc(C(=O)N[C@@H](CCC(=O)O)C(=O)O)cc3)c2c(=O)[nH]1 [Pemetrexed] (partner 0.2 µM)
In short: (§1)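 Relative viability divides the nuclei count in treated wells by that in vehicle wells. Lung cancer cell lines were seeded in 1536-well plates, dosed by pin tool the next day, and fixed and stained after 5 days in one step with final 0.05% Triton X-100, 1% formaldehyde and 1 ug/ml Hoechst. Dosing was a single drug or a fixed anchor-drug dose plus five library-drug doses (not always all listed) in √10 steps, and values are medians of duplicate plates imaged at 4×.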

CAP-232 + Bortezomib = compound: C[C@H]([C@@H](C(=O)N)NC(=O)[C@@H]1CSSC[C@@H](C(=O)N[C@H](C(=O)N[C@@H](C(=O)N[C@H](C(=O)N1)CCCCN)CC2=CNC3=CC=CC=C32)CC4=CC=C(C=C4)O)NC(=O)[C@@H](CC5=CC=CC=C5)N)O [CAP-232] + CC(C)C[C@H](NC(=O)[C@H](Cc1ccccc1)NC(=O)c1cnccn1)B(O)O [Bortezomib] (partner 0.002 µM)
In short: as §1

CAP-232 + Phenformin = compound: C[C@H]([C@@H](C(=O)N)NC(=O)[C@@H]1CSSC[C@@H](C(=O)N[C@H](C(=O)N[C@@H](C(=O)N[C@H](C(=O)N1)CCCCN)CC2=CNC3=CC=CC=C32)CC4=CC=C(C=C4)O)NC(=O)[C@@H](CC5=CC=CC=C5)N)O [CAP-232] + N=C(N)NC(=N)NCCc1ccccc1 [Phenformin] (partner 250 µM)
In short: as §1

CAP-232 + Tozasertib = compound: C[C@H]([C@@H](C(=O)N)NC(=O)[C@@H]1CSSC[C@@H](C(=O)N[C@H](C(=O)N[C@@H](C(=O)N[C@H](C(=O)N1)CCCCN)CC2=CNC3=CC=CC=C32)CC4=CC=C(C=C4)O)NC(=O)[C@@H](CC5=CC=CC=C5)N)O [CAP-232] + Cc1cc(Nc2cc(N3CCN(C)CC3)nc(Sc3ccc(NC(=O)C4CC4)cc3)n2)n[nH]1 [Tozasertib] (partner 0.1 µM)
In short: as §1

CAP-232 + Linsitinib = compound: C[C@H]([C@@H](C(=O)N)NC(=O)[C@@H]1CSSC[C@@H](C(=O)N[C@H](C(=O)N[C@@H](C(=O)N[C@H](C(=O)N1)CCCCN)CC2=CNC3=CC=CC=C32)CC4=CC=C(C=C4)O)NC(=O)[C@@H](CC5=CC=CC=C5)N)O [CAP-232] + C[C@]1(O)C[C@@H](c2nc(-c3ccc4ccc(-c5ccccc5)nc4c3)c3c(N)nccn32)C1 [Linsitinib] (partner 1 µM)
In short: as §1

Cell Line	relative viability (CAP-232 + Pemetrexed; first compound 0.4 µM)	relative viability (CAP-232 + Pemetrexed; first compound 1.265 µM)	relative viability (CAP-232 + Pemetrexed; first compound 4 µM)	relative viability (CAP-232 + Pemetrexed; first compound 12.65 µM)	relative viability (CAP-232 + Bortezomib; first compound 0.4 µM)	relative viability (CAP-232 + Bortezomib; first compound 1.265 µM)	relative viability (CAP-232 + Bortezomib; first compound 4 µM)	relative viability (CAP-232 + Bortezomib; first compound 12.65 µM)	relative viability (CAP-232 + Phenformin; first compound 0.4 µM)	relative viability (CAP-232 + Phenformin; first compound 1.265 µM)	relative viability (CAP-232 + Phenformin; first compound 4 µM)	relative viability (CAP-232 + Phenformin; first compound 12.65 µM)	relative viability (CAP-232 + Tozasertib; first compound 0.4 µM)	relative viability (CAP-232 + Tozasertib; first compound 1.265 µM)	relative viability (CAP-232 + Tozasertib; first compound 4 µM)	relative viability (CAP-232 + Tozasertib; first compound 12.65 µM)	relative viability (CAP-232 + Linsitinib; first compound 0.4 µM)	relative viability (CAP-232 + Linsitinib; first compound 1.265 µM)	relative viability (CAP-232 + Linsitinib; first compound 4 µM)	relative viability (CAP-232 + Linsitinib; first compound 12.65 µM)
A-427	1.22	0.923	0.974	0.924	1.21	0.972	0.993	0.964	0.249	0.332	0.259	0.312	0.164	0.186	0.149	0.207	1.14	1.09	1.15	1.12
IA-LM					0.861	0.656	0.698	0.236									0.828	0.611	0.711	0.394
ChaGo-K-1	0.284	0.259	0.259	0.248	1.45	0.768	1.06	0.784	0.487	0.466	0.601	0.505	0.218	0.237	0.245	0.213				
NCI-H2342	0.798	0.745	0.779	0.835					0.572	0.562	0.629	0.551	0.479	0.459	0.436	0.437				
SK-MES-1	1.04	0.95	0.961	0.608					0.684	0.663	0.693	0.521	0.903	0.893	0.905	0.774	1.09	1.14	1	1.01
